Assay results: ChEMBL document CHEMBL4616624, “STAT3 inhibitory activity of naphthoquinones isolated from Tabebuia avellanedae” (Bioorg Med Chem, 2020)
One block for each compound: values may come before it. The source made the active and inactive calls. The calls are words filed in the database; no cut-off is given here.

Assays:
[1] = target: T1, Signal transducer and activator of transcription 3 (Homo sapiens, UniProt P40763); test: Inhibition of IL-6 induced STAT3 phosphorylation at Tyr705 residue in human MCF7 cells at 10 uM preincubated for 1 hr followed by IL-6 stimulation and measured after 1 hr by Western blot analysis relative to control; format: cell-based
[2] = target: T1, Signal transducer and activator of transcription 3; test: Inhibition of IL-6 induced STAT3 phosphorylation at Tyr705 residue in human MCF7 cells at 1 uM preincubated for 1 hr followed by IL-6 stimulation and measured after 1 hr by Western blot analysis relative to control; format: cell-based
[3] = system: MCF7; test: Cytotoxicity against human MCF7 cells assessed as reduction in cell proliferation measured after 72 hrs by WST8 assay; format: functional, cell-based; conditions: MCF7, 72 h
[4] = system: MDA-MB-231; test: Cytotoxicity against human MDA-MB-231 cells assessed as reduction in cell proliferation measured after 72 hrs by WST8 assay; format: functional, cell-based; conditions: MDA-MB-231, 72 h
[5] = system: A549; test: Cytotoxicity against human A549 cells assessed as reduction in cell proliferation measured after 72 hrs by WST8 assay; format: functional, cell-based; conditions: A549, 72 h
[6] = target: Tyrosine-protein kinase JAK2 (Homo sapiens) (UniProt O60674); test: Inhibition of human recombinant N-terminal His-tagged JAK2 (826 to 1132 residue) expressed in baculovirus expression system at 100 uM using Srctide as substrate by mobility shift assay relative to control
[7] = system: MDA-MB-231; test: Inhibition of JAK/STAT signaling in human MDA-MB-231 cells assessed as decrease in STAT3 phosphorylation by measuring phosphorylated intensity level at 2 uM incubated for 2 hrs by Western blot analysis (reference value: 100%); format: cell-based; parameters: scale not given: the % may be the effect or the level left
[8] = system: MDA-MB-231; test: Inhibition of JAK/STAT signaling in human MDA-MB-231 cells assessed as decrease in STAT3 phosphorylation incubated for 2 hrs by Western blot analysis; format: cell-based
[9] = target: T1, Signal transducer and activator of transcription 3; test: Inhibition of IL-6 induced STAT3 phosphorylation at Tyr705 residue in human MCF7 cells assessed as phosphorylation intensity level at 0.5 uM preincubated for 1 hr followed by IL-6 stimulation and measured after 1 hr by Western blot analysis; format: cell-based; parameters: scale not given: the % may be the effect or the level left
[10] = system: MDA-MB-231; test: Inhibition of JAK/STAT signaling in human MDA-MB-231 cells assessed as decrease in STAT3 phosphorylation by measuring phosphorylated intensity level at 0.5 uM incubated for 2 hrs by Western blot analysis (reference value: 100%); format: cell-based; parameters: scale not given: the % may be the effect or the level left
[11] = target: T1, Signal transducer and activator of transcription 3; test: Inhibition of FAM-G(py)LPQTV-NH2 binding to GST-tagged STAT3-SH2 domain (unknown origin) preincubated for 15 mins followed by FAM-G(py)LPQTV-NH2 addition and measured after 30 mins by TR-FRET assay
[12] = target: Tyrosine-protein kinase JAK1 (Homo sapiens) (UniProt P23458); test: Inhibition of human recombinant N-terminal GST-tagged JAK1 (850 to 1154 residue) expressed in baculovirus expression system at 100 uM using JAK1 peptide as substrate by mobility shift assay relative to control
[13] = target: T2, Tyrosine-protein kinase JAK3 (Homo sapiens) (UniProt P52333); test: Inhibition of human recombinant N-terminal His-tagged JAK3 (795 to 1124 residue) expressed in baculovirus infected Sf21 insect cells up to 100 uM using Srctide as substrate by mobility shift assay
T2 sequence (whole entry): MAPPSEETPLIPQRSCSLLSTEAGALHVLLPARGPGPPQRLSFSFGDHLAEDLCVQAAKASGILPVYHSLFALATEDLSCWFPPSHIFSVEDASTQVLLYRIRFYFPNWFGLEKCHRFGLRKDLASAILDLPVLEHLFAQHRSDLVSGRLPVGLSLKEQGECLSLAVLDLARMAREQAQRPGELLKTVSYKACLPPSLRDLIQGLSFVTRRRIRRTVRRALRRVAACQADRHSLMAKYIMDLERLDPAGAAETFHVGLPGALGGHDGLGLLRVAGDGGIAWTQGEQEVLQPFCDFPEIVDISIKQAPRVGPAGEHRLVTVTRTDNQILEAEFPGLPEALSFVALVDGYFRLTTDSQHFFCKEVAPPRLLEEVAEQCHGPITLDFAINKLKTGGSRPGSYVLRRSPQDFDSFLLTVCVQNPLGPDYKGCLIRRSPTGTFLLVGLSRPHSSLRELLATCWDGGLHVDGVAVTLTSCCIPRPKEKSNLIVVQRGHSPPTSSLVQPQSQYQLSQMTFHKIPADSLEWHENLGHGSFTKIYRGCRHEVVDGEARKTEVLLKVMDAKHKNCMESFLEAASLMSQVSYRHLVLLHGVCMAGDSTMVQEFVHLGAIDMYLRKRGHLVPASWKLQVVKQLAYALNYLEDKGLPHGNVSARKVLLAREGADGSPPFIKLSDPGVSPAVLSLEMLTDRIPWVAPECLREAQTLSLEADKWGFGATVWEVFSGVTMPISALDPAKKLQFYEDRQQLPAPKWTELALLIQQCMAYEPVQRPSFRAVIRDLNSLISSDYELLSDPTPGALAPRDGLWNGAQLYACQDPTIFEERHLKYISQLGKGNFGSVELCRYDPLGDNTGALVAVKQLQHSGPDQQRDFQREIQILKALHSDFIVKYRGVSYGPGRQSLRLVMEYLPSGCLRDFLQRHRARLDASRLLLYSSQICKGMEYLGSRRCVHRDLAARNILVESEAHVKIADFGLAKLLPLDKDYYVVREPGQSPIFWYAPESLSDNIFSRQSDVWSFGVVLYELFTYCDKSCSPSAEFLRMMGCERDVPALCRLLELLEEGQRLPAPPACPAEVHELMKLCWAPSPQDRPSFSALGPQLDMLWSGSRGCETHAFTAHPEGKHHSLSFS

[14] = target: Tyrosine-protein kinase JAK2 (Homo sapiens) (UniProt O60674); test: Inhibition of IL-6 induced JAK2 phosphorylation at Tyr1007/1008 residue in human MCF7 cells preincubated for 1 hr followed by IL-6 stimulation and measured after 1 hr by Western blot analysis; format: cell-based
[15] = target: T1, Signal transducer and activator of transcription 3; test: Inhibition of IL-6 induced STAT3 phosphorylation at Tyr705 residue in human MCF7 cells preincubated for 1 hr followed by IL-6 stimulation and measured after 1 hr by Western blot analysis; format: cell-based
[16] = system: MDA-MB-231; test: Inhibition of JAK/STAT signaling in human MDA-MB-231 cells assessed as decrease in STAT3 phosphorylation by measuring phosphorylated intensity level at 4 uM incubated for 2 hrs by Western blot analysis (reference value: 100%); format: cell-based; parameters: scale not given: the % may be the effect or the level left
[17] = target: T1, Signal transducer and activator of transcription 3; test: Inhibition of IL-6 induced STAT3 phosphorylation at Tyr705 residue in human MCF7 cells assessed as phosphorylation intensity level at 4 uM preincubated for 1 hr followed by IL-6 stimulation and measured after 1 hr by Western blot analysis; format: cell-based; parameters: scale not given: the % may be the effect or the level left
[18] = target: T1, Signal transducer and activator of transcription 3; test: Inhibition of IL-6 induced STAT3 phosphorylation at Tyr705 residue in human MCF7 cells assessed as phosphorylation intensity level at 2 uM preincubated for 1 hr followed by IL-6 stimulation and measured after 1 hr by Western blot analysis; format: cell-based; parameters: scale not given: the % may be the effect or the level left
[19] = target: T1, Signal transducer and activator of transcription 3; test: Inhibition of IL-6 induced STAT3 phosphorylation at Tyr705 residue in human MCF7 cells assessed as phosphorylation intensity level at 1 uM preincubated for 1 hr followed by IL-6 stimulation and measured after 1 hr by Western blot analysis; format: cell-based; parameters: scale not given: the % may be the effect or the level left
[20] = target: T3, Signal transducer and activator of transcription 1-alpha/beta (Homo sapiens) (UniProt P42224); test: Inhibition of FAM-G(py)DKPHVL-NH2 binding to GST-tagged STAT1-SH2 domain (unknown origin) preincubated for 15 mins followed by FAM-G(py)DKPHVL-NH2 addition and measured after 30 mins by TR-FRET assay
T3 sequence (whole entry): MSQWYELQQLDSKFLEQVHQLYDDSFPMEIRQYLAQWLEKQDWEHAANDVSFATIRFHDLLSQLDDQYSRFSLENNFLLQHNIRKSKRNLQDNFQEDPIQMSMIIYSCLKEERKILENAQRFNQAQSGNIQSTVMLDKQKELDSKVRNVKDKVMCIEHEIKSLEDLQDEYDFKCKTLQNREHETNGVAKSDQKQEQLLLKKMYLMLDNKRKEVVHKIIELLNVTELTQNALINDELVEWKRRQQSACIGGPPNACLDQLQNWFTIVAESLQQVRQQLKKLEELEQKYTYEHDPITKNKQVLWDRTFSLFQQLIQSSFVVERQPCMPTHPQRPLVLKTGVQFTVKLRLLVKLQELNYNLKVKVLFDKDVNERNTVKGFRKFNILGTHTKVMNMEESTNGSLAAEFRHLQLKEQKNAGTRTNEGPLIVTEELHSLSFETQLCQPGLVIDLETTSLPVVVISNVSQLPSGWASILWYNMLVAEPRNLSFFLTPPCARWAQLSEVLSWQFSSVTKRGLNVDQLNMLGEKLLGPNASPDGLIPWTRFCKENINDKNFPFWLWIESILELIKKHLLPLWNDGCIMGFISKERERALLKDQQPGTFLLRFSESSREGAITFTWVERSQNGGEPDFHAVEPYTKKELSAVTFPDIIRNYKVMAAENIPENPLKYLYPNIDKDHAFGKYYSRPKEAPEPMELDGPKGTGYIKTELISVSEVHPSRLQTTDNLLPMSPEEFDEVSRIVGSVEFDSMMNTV

[21] = system: MDA-MB-231; test: Inhibition of JAK/STAT signaling in human MDA-MB-231 cells assessed as decrease in STAT3 phosphorylation by measuring phosphorylated intensity level at 1 uM incubated for 2 hrs by Western blot analysis (reference value: 100%); format: cell-based; parameters: scale not given: the % may be the effect or the level left
[22] = system: MCF7; test: Effect on total STAT3 level in IL-6 induced human MCF7 cells at 0.5 to 4 uM preincubated for 1 hr followed by IL-6 stimulation and measured after 1 hr by Western blot analysis; format: ADME, cell-based; conditions: mcf7, 1 h

Tyrosine-protein kinase JAK2 (Homo sapiens), sequence (O60674 whole entry): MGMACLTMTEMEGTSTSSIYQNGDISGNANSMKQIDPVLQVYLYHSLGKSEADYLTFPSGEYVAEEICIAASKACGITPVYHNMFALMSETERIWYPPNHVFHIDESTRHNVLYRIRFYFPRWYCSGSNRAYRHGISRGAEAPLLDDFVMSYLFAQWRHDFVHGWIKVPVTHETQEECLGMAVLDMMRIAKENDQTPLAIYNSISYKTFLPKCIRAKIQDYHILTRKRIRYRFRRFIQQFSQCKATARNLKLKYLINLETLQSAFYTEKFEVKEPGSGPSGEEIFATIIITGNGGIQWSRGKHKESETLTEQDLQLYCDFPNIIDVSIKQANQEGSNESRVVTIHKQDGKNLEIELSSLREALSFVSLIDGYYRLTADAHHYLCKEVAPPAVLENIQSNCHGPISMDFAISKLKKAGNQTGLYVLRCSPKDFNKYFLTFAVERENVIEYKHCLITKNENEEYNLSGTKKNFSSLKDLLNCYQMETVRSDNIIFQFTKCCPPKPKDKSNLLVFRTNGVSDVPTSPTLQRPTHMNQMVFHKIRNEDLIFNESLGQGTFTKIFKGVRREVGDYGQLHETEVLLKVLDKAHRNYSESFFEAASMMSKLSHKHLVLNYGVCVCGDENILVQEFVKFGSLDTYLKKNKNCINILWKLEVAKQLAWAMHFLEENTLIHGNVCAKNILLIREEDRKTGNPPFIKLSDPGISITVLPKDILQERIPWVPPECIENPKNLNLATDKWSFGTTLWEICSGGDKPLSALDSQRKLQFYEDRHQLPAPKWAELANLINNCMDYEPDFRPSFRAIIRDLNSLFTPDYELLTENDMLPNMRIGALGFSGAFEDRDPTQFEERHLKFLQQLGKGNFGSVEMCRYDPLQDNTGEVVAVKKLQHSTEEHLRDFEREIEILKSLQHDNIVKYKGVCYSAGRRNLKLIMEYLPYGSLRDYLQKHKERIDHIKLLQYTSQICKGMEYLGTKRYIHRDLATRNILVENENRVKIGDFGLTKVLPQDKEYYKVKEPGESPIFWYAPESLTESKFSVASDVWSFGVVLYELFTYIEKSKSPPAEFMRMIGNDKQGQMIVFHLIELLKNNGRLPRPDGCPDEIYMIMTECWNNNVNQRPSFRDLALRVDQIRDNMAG
T1 sequence (P40763 whole entry): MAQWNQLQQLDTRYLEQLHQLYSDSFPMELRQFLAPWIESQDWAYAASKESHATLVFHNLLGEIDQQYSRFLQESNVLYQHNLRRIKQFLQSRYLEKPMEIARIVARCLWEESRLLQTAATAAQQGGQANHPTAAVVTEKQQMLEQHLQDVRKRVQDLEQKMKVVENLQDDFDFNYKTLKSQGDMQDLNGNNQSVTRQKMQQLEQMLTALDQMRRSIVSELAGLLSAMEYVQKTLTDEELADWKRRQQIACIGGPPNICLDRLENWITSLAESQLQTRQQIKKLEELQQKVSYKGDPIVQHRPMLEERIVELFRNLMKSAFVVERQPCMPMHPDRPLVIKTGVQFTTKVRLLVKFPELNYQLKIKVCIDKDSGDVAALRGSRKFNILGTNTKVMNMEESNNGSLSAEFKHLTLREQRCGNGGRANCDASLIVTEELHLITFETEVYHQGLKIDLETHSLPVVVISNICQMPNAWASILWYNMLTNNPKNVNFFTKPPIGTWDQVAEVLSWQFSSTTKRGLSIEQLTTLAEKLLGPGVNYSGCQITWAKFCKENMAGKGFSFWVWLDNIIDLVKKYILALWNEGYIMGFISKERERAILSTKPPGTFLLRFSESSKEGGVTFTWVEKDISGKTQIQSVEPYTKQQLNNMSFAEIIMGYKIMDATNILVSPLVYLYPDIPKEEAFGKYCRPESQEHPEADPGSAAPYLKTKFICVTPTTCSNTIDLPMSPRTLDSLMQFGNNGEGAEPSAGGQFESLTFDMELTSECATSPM
Tyrosine-protein kinase JAK1 (Homo sapiens), sequence (P23458 whole entry): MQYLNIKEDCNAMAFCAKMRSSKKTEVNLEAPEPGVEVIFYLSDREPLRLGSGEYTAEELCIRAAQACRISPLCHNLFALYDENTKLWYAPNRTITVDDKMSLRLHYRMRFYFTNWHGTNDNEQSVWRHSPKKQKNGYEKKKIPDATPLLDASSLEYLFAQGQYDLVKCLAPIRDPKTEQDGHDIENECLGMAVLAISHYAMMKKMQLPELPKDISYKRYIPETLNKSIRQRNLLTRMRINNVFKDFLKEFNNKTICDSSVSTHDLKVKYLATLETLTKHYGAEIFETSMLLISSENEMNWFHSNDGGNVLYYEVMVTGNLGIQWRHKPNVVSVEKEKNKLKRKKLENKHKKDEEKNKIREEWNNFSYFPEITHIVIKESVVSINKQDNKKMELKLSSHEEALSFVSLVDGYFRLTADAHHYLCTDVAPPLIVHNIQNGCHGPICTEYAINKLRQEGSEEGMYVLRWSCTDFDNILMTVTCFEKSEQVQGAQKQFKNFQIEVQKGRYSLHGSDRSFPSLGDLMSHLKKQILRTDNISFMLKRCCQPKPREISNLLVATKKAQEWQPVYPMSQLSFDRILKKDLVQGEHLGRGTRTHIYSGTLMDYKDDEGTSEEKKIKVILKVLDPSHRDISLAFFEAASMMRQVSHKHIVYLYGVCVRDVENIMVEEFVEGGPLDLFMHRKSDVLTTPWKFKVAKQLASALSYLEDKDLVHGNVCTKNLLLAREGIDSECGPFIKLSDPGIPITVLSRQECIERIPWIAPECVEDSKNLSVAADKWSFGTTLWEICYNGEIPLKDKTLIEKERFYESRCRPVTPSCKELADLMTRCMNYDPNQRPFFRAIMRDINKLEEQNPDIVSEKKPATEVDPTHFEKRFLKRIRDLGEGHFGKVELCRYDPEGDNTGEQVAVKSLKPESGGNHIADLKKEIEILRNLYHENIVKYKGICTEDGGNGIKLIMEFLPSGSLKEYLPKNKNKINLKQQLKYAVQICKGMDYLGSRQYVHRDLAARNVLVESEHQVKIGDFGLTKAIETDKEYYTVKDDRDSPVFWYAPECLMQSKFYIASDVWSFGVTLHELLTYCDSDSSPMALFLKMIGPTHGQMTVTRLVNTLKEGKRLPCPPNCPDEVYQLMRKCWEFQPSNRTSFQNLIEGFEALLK

Compound: CC1(C)CCC2=C(O1)C(=O)c1ccccc1C2=O [ALPHA-LAPACHONE]
inhibition [1]: inactive
inhibition [2]: inactive
IC50 [3]: > 30000 nM
IC50 [4]: > 30000 nM
IC50 [5]: > 30000 nM

Compound: CC(C)=CCC1=C(O)C(=O)c2ccccc2C1=O [LAPACHOL]
inhibition [1]: inactive
inhibition [2]: inactive
IC50 [3]: > 30000 nM
IC50 [4]: > 30000 nM
IC50 [5]: > 30000 nM

Compound: CC1(C)CCC2=C(O1)c1ccccc1C(=O)C2=O [LAPACHONE]
inhibition [1]: inactive
inhibition [2]: inactive
IC50 [3]: 710 nM
IC50 [4]: 1390 nM
IC50 [5]: 1960 nM

Now from value to compound, other results behind:

inhibition [1]: 100%
inhibition [2]: Active
Compound: C[C@H](O)c1cc2c(o1)C(=O)c1c(O)cccc1C2=O
IC50 [3]: 1110 nM
IC50 [4]: 330 nM
IC50 [5]: 280 nM

inhibition [6]: 80.6%
inhibition [1]: 100%
inhibition [2]: Active
Activity [9]: 76%
inhibition [11]: inactive
inhibition [12]: 94.8%
inhibition [13]: inactive
inhibition [14]: Dose-dependent effect
IC50 [15]: 2000 nM
Activity [17]: 3%
Activity [18]: 43%
Activity [19]: 75%
inhibition [20]: inactive
Compound: C[C@H](O)c1cc2c(o1)C(=O)c1cccc(O)c1C2=O
Activity [7]: 21%
inhibition [8]: Dose-dependent effect
IC50 [3]: 500 nM
Activity [10]: 68%
Activity [16]: 35%
IC50 [4]: 410 nM
IC50 [5]: 130 nM
Activity [21]: 78%
Activity [22]: Non-Toxic

Activity [9]: 36%
Activity [17]: 35%
Activity [18]: 20%
Activity [19]: 23%
Compound: C[C@H](O)c1cc2c(o1)C(=O)c1ccccc1C2=O
IC50 [3]: 280 nM
IC50 [4]: 1590 nM
IC50 [5]: 720 nM
Activity [22]: Non-Toxic

inhibition [6]: 84.7%
inhibition [12]: 95.5%
inhibition [13]: inactive
Compound: CC(=O)c1cc2c(o1)C(=O)c1ccccc1C2=O [NAPABUCASIN]
Activity [7]: 48%
inhibition [8]: Dose-dependent effect
IC50 [3]: 240 nM
Activity [10]: 111%
Activity [16]: 28%
IC50 [4]: 250 nM
IC50 [5]: 120 nM
Activity [21]: 107%
Activity [22]: Non-Toxic

Activity [9]: 107%
IC50 [15]: 2000 nM
Activity [17]: 23%
Activity [18]: 38%
Activity [19]: 84%
Compound: CC(=O)c1cc2c(o1)C(=O)c1cccc(O)c1C2=O
IC50 [3]: 51 nM
IC50 [4]: 170 nM
IC50 [5]: 44 nM
Activity [22]: Non-Toxic
